Laboratory results published in PMC12019328, “Discovery of an ApoE4-targeted small-molecule SirT1 enhancer for the treatment of Alzheimer’s disease” (Scientific Reports, 2025).

Biological target: T1, protein arginine methyltransferase (PRMT) (Homo sapiens, UniProt Q86X55)
T1 construct: proteins from human neuroblastoma SH-SY5Y; endogenous in cells; host or cells: SH-SY5Y human neuroblastoma cell lysate
T1 sequence (Q86X55 1-608): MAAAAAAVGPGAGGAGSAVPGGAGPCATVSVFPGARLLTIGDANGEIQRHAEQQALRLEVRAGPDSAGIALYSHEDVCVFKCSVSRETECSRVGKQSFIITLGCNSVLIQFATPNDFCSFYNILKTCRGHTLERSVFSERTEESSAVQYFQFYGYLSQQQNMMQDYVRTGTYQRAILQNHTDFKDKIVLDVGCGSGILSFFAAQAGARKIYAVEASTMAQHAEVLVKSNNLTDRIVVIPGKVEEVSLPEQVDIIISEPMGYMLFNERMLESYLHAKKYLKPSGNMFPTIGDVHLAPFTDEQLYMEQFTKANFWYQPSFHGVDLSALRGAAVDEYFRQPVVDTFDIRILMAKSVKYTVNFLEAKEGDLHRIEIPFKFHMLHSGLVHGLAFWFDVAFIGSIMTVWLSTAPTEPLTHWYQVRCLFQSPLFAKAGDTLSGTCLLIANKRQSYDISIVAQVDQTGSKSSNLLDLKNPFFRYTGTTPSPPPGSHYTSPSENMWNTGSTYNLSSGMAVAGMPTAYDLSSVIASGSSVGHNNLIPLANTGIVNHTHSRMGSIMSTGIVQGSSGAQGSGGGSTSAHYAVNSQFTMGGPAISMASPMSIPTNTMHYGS
Assay: Affinity purification and STRING analysis-based proteomics with SH-SY5Y cell lysates
Type: binding
Settings: compound clicked to agarose magnetic beads
Procedure: To assist in identification of possible protein interactions of our SirT1 enhancers, affinity purification and STRING analysis-based proteomics was used, as described in Supplementary Methods. […] To assess effects of various PRMTs 1, 4, 5, 7 and 8 on SirT1, N2a-E4 cells were transfected with each of these PRMTs as described in Supplementary Methods. […]
supernatants were transferred to new tubes and lyophilized. Samples were reconstituted in 100 µL of 50/50/0.1 (Water/Acetonitrile/Formic Acid) prior to analysis via liquid chromatography-tandem mass spectrometry (LC-MS/MS).
Normalized chromatographic peak areas was plotted at each time point and the half-life (T1/2) of compound in liver microsomes was determined by using the trendline equation to calculate the time at which compound abundance was 50% of that at timepoint 0 (T0).
Kinetic solubility was assessed by separately diluting a test compound solution (10 mM, 100% DMSO) into the aqueous buffer (PBS pH 7.4) and DMSO at 100 μM, 100 μL total volume.
The solutions were then incubated at 37°C for 90 min and centrifuged (16000xg, 5 min). An aliquot (50 µL) of each supernatant was analyzed by LC-MS/MS.
Five standard concentrations (100, 10, 1, 0.1, and 0, DMSO) in duplicates were incubated at 37°C for 90 min and centrifuged (16000xg, 5 min). Aliquots (50 µL) of supernatant were analyzed by LC-MS/MS to create the standard curve.
Table S2. […]

C#Cc1ccc(CC(C)(C)NC(=O)[C@H](C)N)cc1 [DDL-220]
protein interaction found by affinity purification: a protein arginine methyltransferase (PRMT) interacts with DDL-220
